Assay results as given in patent publication US6133279A, “Therapeutic agents for renal diseases and organ preservatives” (Chugai Seiyaku Kabushiki Kaisha, priority 1996, dated 2000).
Like-named read-outs stand apart in the source and are kept apart here.

Key:
[1] = system: puromycin-induced nephrosis model; assay: Puromycin-induced nephrosis (1), preadministration (in vivo); set-up: species or system rat (male SD rats); details: day 8; for Creatinine clearance: control 576 ± 148; for Creatinine: serum, control 0.93 ± 0.21
Protocol: Effect of the compound of the present invention on an in vivo renal disease was studied using a puromycin-induced nephrosis model.
A puromycin-induced renal failure model was prepared from rats in groups of 5-8 each (6 week-old male SD rats) fed with high-fat diet. High-fat diet feeding was started by free access to high-fat diet (cholesterol level 1.25%) from 7 days before puromycin treatment. Puromycin (puromycin aminonucleoside, SIGMA Chemical Co.) treatment was performed by intraperitoneal administration at a dose of 100 mg/kg. The test compound was administered as a solution in soybean oil via oral route (4 ml/kg). Control group was orally administered soybean oil alone. The administration of compound was started from 3 days before the puromycin treatment once a day. After the puromycin treatment, the oral administration of the compound was continued.
Renal functions were determined by using urine and blood samples collected on day 8 after the puromycin treatment. Volume of urine and the creatinine levels in serum and urine were evaluated to calculate creatinine clearance as an indication of renal functions.

[2] = system: murine mesangial derived MES13 cells; assay: Protective effect against oxidized LDL-induced injury of murine mesangial cells (in vitro); format: cell-based; details: Mus musculus, MES13, 10 h, mean ± standard deviation, read-out: Cytoprotection rate (%)
Protocol: For the purpose of evaluating in vitro cytoprotective effect of the compounds of the present invention on mesangial cells, a cytoprotective study was performed using murine mesangial derived MES13 cells (ATCC-CRL-1927) injured by oxidized LDL.
Oxidized LDL was prepared in the same manner as in Test example 1. Cell culture was carried out by plating 2.5×10^4 cells/250 μl/well on a 48-well plate using FBS-free medium (mixture of DME medium and F12 medium in a ratio of 3:1). Test compounds were dissolved or suspended in ethanol and added to the wells in an amount of 1.25 μl/well to a concentration of 1 or 10 μM in each well. After 16 hours or immediately after the addition of the compounds, oxidized LDL was added to cells in an amount of 25 μl/well to a concentration of 91 μg/ml and the cells were cultured for 10 hours after addition of the oxidized LDL. Then, 150 μl/well of the culture medium were collected and measured for the lactate dehydrogenase level (LDL: SIGMA DIAGNOSTICS) having leaked in the medium.
The magnitude of cytoprotective effect was expressed as the cytoprotection rate which was determined by calculating the data assuming that the magnitude in wells containing oxidized LDL is 0% and that the magnitude in containing saline is 100%.

[3] = system: ischemic acute renal failure model; assay: Ischemic acute renal failure model, renal ischemia 60 minutes (in vivo); set-up: species or system rat (male SD rats); details: 200 mg/kg oral once a day
Protocol: Effect of a compound of the present invention on an in vivo renal disease was studied using an ischemic acute renal failure model.
An ischemic acute renal failure model was prepared from in groups of 8 each rats (male SD rats, weight: 224-285 g) fed with high-fat diet. High-fat diet feeding was started by free access to high-fat diet (cholesterol level 1.25%) from 7 or 8 days prior to unilateral nephrectomy and left renal artery clamping. The test compound was administered as a solution in soybean oil via oral route (4 ml/kg). Control group was orally administered soybean oil alone. The administration of compound was started from 4 or 5 days before the ischemic treatment at a dose of 200 mg/kg once a day. After the ischemia treatment, the oral administration of the compound was continued at a frequency of once a day. The ischemic treatment was performed by removing the right kidney and clipping a renal artery of the left kidney for 30 or 60 minutes.
Renal functions after ischemic treatment were determined by using urine and blood samples daily collected. Urine volume and the creatinine level of serum and urine were evaluated to calculate creatinine clearance as an indication of renal functions. Influences of high-fat diet feeding were monitored by measuring serum cholesterol level.

[4] = system: porcine kidney-derived LLC-PK1 cells; assay: Protective effect against oxidized LDL-induced injury of porcine kidney-derived LLC-PK1 cells (1); format: cell-based; details: Sus scrofa, LLC-PK1, 6 h, mean ± standard deviation, read-out: Cytoprotection rate (%)
Protocol: For the purpose of evaluating in vitro cytoprotective effect of the compounds of the present invention, a cytoprotective study was performed using porcine kidney-derived LLC-PK1 cells (ATCC-CRL-13921) injured by oxidized low-density lipoprotein (oxidized LDL).
Oxidized LDL was prepared by incubating 1 mg/ml of rabbit LDL in PBS (-) in the presence of 10 μM CuSO4 at 37° C. for 24 hours. Cell culture was carried out by plating 1.25×10^4 cells/250 μl/well on a 48-well plate containing M199 medium containing 3% FBS. Test compounds were dissolved or suspended in ethanol and added to the wells in an amount of 1.25 μl/well to a concentration of 0.1, 1 or 10 μM in each well. After 16 hours or immediately after the addition of the compounds, oxidized LDL was added to the wells. Probucol, α-tocopherol and Trolox which is a water-soluble analogue of α-tocopherol were used as reference control compounds. Oxidized LDL was diluted twice with saline and then added to the wells in an amount of 62.5 μl/well to a concentration of 100 μg/ml and the cells were cultured for 6 hours after addition of the oxidized LDL. Then, 162.5 μl/well of the culture medium were collected and measured for the lactate dehydrogenase (LDH) level (LD-L: SIGNA DIAGNOSTICS) having leaked into the medium.
The magnitude of cytoprotective effect was expressed as the cytoprotection rate which was determined by calculating the data assuming that the magnitude in wells containing oxidized LDL is 0% and that the magnitude in wells containing saline is 100%.

[5] = 20 mg/kg oral once a day from 3 days before puromycin
[6] = 200 mg/kg oral once a day from 3 days before puromycin, P < 0.05
[7] = compound added 16 hours before adding oxidized LDL
[8] = compound added immediately before adding oxidized LDL

Structure (SMILES): CCCCCC1(CCCCC)Cc2c(cc(C(C)(C)C)c(O)c2C(C)(C)C)O1 [Example 36, 4,6-Di-t-butyl-2,2-di-n-pentyl-5-hydroxy-2,3-dihydrobenzofuran]
- Creatinine clearance [1, 5]: 724 ± 176 mL/day
- Creatinine clearance [1, 6]: 1055 ± 482 mL/day
- Creatinine [1, 5]: 0.71 ± 0.14 mg/dL
- Creatinine [1, 6]: 0.59 ± 0.23 mg/dL
- inhibition at 1 µM [2, 7]: 9.7 ± 1.8%
- inhibition at 1 µM [2, 8]: 2.7 ± 0.7%
- inhibition at 10 µM [2, 7]: 43.5 ± 0.5%
- inhibition at 10 µM [2, 8]: 40 ± 3.5%
- Creatinine ([3]; 1 day after ischemia (60 minutes), control 3.89 ± 0.77, P < 0.01): 2.81 ± 0.42 mg/dL
- Creatinine clearance ([3]; 1 day after ischemia (60 minutes), control 276 ± 118, P < 0.05): 478 ± 171 mL/day
- Creatinine ([3]; 2 days after ischemia (60 minutes), control 3.33 ± 1.90): 1.94 ± 0.30 mg/dL
- Creatinine clearance ([3]; 2 days after ischemia (60 minutes), control 363 ± 140, P < 0.01): 594 ± 123 mL/day
- Creatinine ([3]; 3 days after ischemia (60 minutes), control 3.19 ± 2.19): 1.86 ± 0.27 mg/dL
- inhibition at 0.1 µM [4, 7]: -1 ± 7.4%
- inhibition at 0.1 µM [4, 8]: -3.2 ± 1.1%
- inhibition at 1 µM [4, 7]: 92.2 ± 3.7%
- inhibition at 1 µM [4, 8]: 0.6%
- inhibition at 10 µM [4, 7]: 97.7 ± 1.1%
- inhibition at 10 µM [4, 8]: 78.8 ± 3.6%
